Test results from paper PMC11406233 (Proceedings of the National Academy of Sciences of the …, 2024).
Read-outs that look alike come from different tables or passages of the source.

Tests used:
SCoV2^WK521WT [1] = experiment: microbe, parasite or virus in culture; details: Severe acute respiratory syndrome coronavirus 2, VeroE6/TMPRSS2, read-out: EC50 from cell-based assay
SCoV2^WK521WT [2] = experiment: microbe, parasite or virus in culture; format: cell-based; details: for EC50: Severe acute respiratory syndrome coronavirus 2, read-out: EC50 from cell-based assay

`COc1cccc2[nH]c(C(=O)N[C@@H](CC(C)C)C(=O)N[C@@H](C[C@@H]3CCNC3=O)C(=O)c3nc4ccccc4s3)cc12` [5h] was tested. Which EC50 (SCoV2^WK521WT [1]) did it give?
The EC50 was 4.1 µM.

And the EC50 (SCoV2^WK521WT [2])?
Its EC50 is 0.2 ± 0.09 µM.

How did the EC50 (SCoV2^WK521WT [1]) turn out when `CC(C)(C)[C@H](NC(=O)C(F)(F)F)C(=O)N1C[C@H]2[C@@H]([C@H]1C(=O)N[C@@H](C[C@@H]1CCNC1=O)C(=O)c1nc3c(F)cccc3s1)C2(C)C` [TKB245] was run?
The EC50 was 0.33 µM.

What about the “Difference in the EC50 values of NIR and TKB245” value (SCoV2^WK521WT [2]) of the same molecule?
Its value is 34.7 fold.

What about the EC50 (SCoV2^WK521WT [2]) of the same molecule?
Its EC50 is 0.0015 µM.

With `CC(C)(C)[C@H](NC(=O)C(F)(F)F)C(=O)N1C[C@H]2[C@@H]([C@H]1C(=O)N[C@H](C#N)C[C@@H]1CCNC1=O)C2(C)C` [nirmatrelvir, reference compound] as the molecule, how does the EC50 (SCoV2^WK521WT [1]) read?
The EC50 was 1.5 µM.

And the EC50 (SCoV2^WK521WT [2])?
Its EC50 is 0.052 µM.
